Source: US20240148821A1, “PHARMACEUTICAL USE OF CYCLIC PEPTIDE COMPOUND” (CHUGAI SEIYAKU KABUSHIKI KAISHA, priority 2021, published 2024)
Numbered stars: 1 amine (or outer) side, 2 acyl side, 3 side chain; on linkers, the order of the positions; unused ones are H or OH. Bridge positions count the residues as written; N and C are the ends. Square brackets hold non-standard residues; d marks the D form. Peptide text beside a SMILES is read from it. * marks the point of attachment. hPhe(3,5-F2-4-CF3) = N[C@@H](CCc1cc(F)c(C(F)(F)F)c(F)c1)C(=O)O; hPhe(3-Cl-4-CF3) = N[C@@H](CCc1ccc(C(F)(F)F)c(Cl)c1)C(=O)O; hPhe(3-F,4-CF3) = N[C@@H](CCc1ccc(C(F)(F)F)c(F)c1)C(=O)O; NEtPhe(4-Me) = CCN[C@@H](Cc1ccc(C)cc1)C(=O)O; NMeAbu(4,4,4-F3) = CN[C@@H](CC(F)(F)F)C(=O)O; NMePhe(4-Cl) = CN[C@@H](Cc1ccc(Cl)cc1)C(=O)O; NMePhe(4-Me) = CN[C@@H](Cc1ccc(C)cc1)C(=O)O; NMedβ3hAla = C[C@H](CC(=O)[*:2])N(C)[*:1]; NMeGly(cPent) = CN[C@H](C(=O)O)C1CCCC1; X28 = O=C(CN(C1CC2(COC2)C1)[*:1])[*:2]; NMeGly(cBu) = CN[C@H](C(=O)O)C1CCC1; NMeCha = CN[C@@H](CC1CCCCC1)C(=O)O; Hyp = O=C(O)[C@@H]1C[C@@H](O)CN1; NMeChg = CN[C@H](C(=O)O)C1CCCCC1; NMeI = CC[C@H](C)[C@H](NC)C(=O)O; NMeD = CN[C@@H](CC(=O)O)C(=O)O; NMeL = CN[C@@H](CC(C)C)C(=O)O; NMePra = C#CC[C@H](NC)C(=O)O; NMeV = CN[C@H](C(=O)O)C(C)C; d(β3hA) = C[C@@H](N)CC(=O)O; NMeS = CN[C@@H](CO)C(=O)O; Pip = O=C(O)[C@@H]1CCCCN1; Morpholide = C1CN(*)CCO1; NMeA = CN[C@@H](C)C(=O)O; NMeAib = CNC(C)(C)C(=O)O; Nle = CCCC[C@H](N)C(=O)O; Piperidide = C1CCN(*)CC1; Pyrrolidide = C1CCN(*)C1; dNMeA = CN[C@H](C)C(=O)O; Ac5c = NC1(C(=O)O)CCCC1; Aze = O=C(O)[C@@H]1CCN1; Abu = CC[C@H](N)C(=O)O; Sar = CNCC(=O)O; Propyl = CCC*

What was measured:
[1] = biological target: protein-protein interaction between Kras and SOS1 (biotin-tagged human Kras loaded with GDP, His-tagged human SOS1) (Homo sapiens (Human), UniProt P01116, G12D); experiment: Protein-protein interaction inhibition between Kras and SOS1 (KrasG12D-SOS PPI) using AlphaScreen; type: biochemical; details: AlphaScreen; biotin-tagged human Kras loaded with GDP, His-tagged human SOS1; read-out: KRAS G12D-SOS PPI IC50;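 note: kras produced in E. coli, Ni-coupled donor beads and streptavidin acceptor beads, excitation 680 nm with emission detected at 520–620 nm via singlet oxygen transfer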
[2] = system: Human pancreatic cancer cell line AsPC-1 (G12D mutation Kras); experiment: AsPC-1 cell growth inhibition (AsPC-1 CGI); type: cell-based; details: read-out: AsPC-1 cell growth inhibition, 50% growth inhibitory concentration (IC50 value); 96 hours, CellTiter-Glo, values classified in ranges

| Compound | IC50 [1] [nM] | IC50 [2] [nM] |
| --- | --- | --- |
| CC[C@H](C)[C@@H]1NC(=O)[C@H](CC(C)C)N(C)C(=O)C[C@@H](C)N(C)C(=O)[C@H]([C@@H](C)CC)N(C)C(=O)C2(CCCC2)NC(=O)[C@@H]2CCCN2C(=O)[C@H](CCc2ccc(C(F)(F)F)c(Cl)c2)NC(=O)CN(C)C(=O)[C@H](Cc2ccc(C)cc2)N(C)C(=O)[C@@H]2CCN2C(=O)[C@H](C)N(C)C1=O [Compound 1793] (cyclo([Ac5c][NMeI][NMedβ3hAla][NMeL]I[NMeA][Aze][NMePhe(4-Me)][Sar][hPhe(3-Cl-4-CF3)]P)) | 1.9 | ≤ 20 |
| CCCOC[C@H]1C(=O)N(C)CC(=O)N[C@@H](CCc2ccc(C(F)(F)F)c(Cl)c2)C(=O)N2CCC[C@H]2C(=O)NC2(CCCC2)C(=O)N(C)[C@@H]([C@@H](C)CC)C(=O)N(C)[C@H](C(=O)N2CCCC2)CC(=O)N(C)[C@@H](CC(C)C)C(=O)N[C@@H]([C@@H](C)CC)C(=O)N(C)[C@@H](C)C(=O)N2CC[C@H]2C(=O)N1C [Compound 567] ([NMeL]I[NMeA][Aze][NMeS](Propyl)[Sar][hPhe(3-Cl-4-CF3)]P[Ac5c][NMeI][NMeD]-Pyrrolidide; lactam N-11) | 1.5 | ≤ 20 |
| CC[C@H](C)[C@@H]1NC(=O)[C@H](CC(C)C)N(C)C(=O)C[C@@H](C(=O)N2CCOCC2)N(C)C(=O)[C@H](C2CCCC2)N(C)C(=O)C2(CCCC2)NC(=O)[C@@H]2CCCN2C(=O)[C@H](CCc2ccc(C(F)(F)F)c(F)c2)NC(=O)CN(C)C(=O)[C@H](Cc2ccc(C)cc2)N(C)C(=O)[C@@H]2CCN2C(=O)[C@H](C)N(C)C1=O [Compound 938] ([NMeL]I[NMeA][Aze][NMePhe(4-Me)][Sar][hPhe(3-F,4-CF3)]P[Ac5c][NMeGly(cPent)][NMeD]-Morpholide; lactam N-11) | 0.69 | ≤ 20 |
| CCO[C@@H]1C[C@H]2C(=O)NC3(CCCC3)C(=O)N(C)[C@@H](C3CCCCC3)C(=O)N(C)[C@H](C(=O)N3CCOCC3)CC(=O)N(C)[C@@H](CC(C)C)C(=O)N[C@@H]([C@@H](C)CC)C(=O)N(C)CC(=O)N(C)CC(=O)N(C)[C@@H](CC3CCCCC3)C(=O)N(C)CC(=O)N[C@@H](CCc3ccc(C(F)(F)F)c(Cl)c3)C(=O)N2C1 [Compound 1990] ([NMeL]I[Sar][Sar][NMeCha][Sar][hPhe(3-Cl-4-CF3)][Hyp](Et)[Ac5c][NMeChg][NMeD]-Morpholide; lactam N-11) | 0.43 | ≤ 20 |
| CCCC[C@@H]1NC(=O)[C@H](CCc2ccc(C(F)(F)F)c(Cl)c2)NC(=O)CN(C)C(=O)[C@H](Cc2ccc(Cl)cc2)N(C)C(=O)[C@@H]2CCN2C(=O)[C@H](C)N(C)C(=O)[C@H]([C@@H](C)CC)NC(=O)[C@@H]2CCCCN2C(=O)C[C@@H](C(=O)N2CCCCC2)N(C)C(=O)[C@H](CC(C)C)NC(=O)C(C)(C)N(C)C1=O [Compound 103] ([Pip]I[NMeA][Aze][NMePhe(4-Cl)][Sar][hPhe(3-Cl-4-CF3)][Nle][NMeAib]L[NMeD]-Piperidide; lactam N-11) | 22 | > 500 |
| CCO[C@@H]1C[C@H]2C(=O)NC3(CCCC3)C(=O)N(C)[C@@H](C3CCCCC3)C(=O)N(C)[C@H](C(=O)N3CCCC3)CC(=O)N(C)[C@@H](C3CCC3)C(=O)N[C@@H]([C@@H](C)CC)C(=O)N(C)CC(=O)N(C)CC(=O)N(C)[C@@H](CC3CCCCC3)C(=O)N(C)CC(=O)N[C@@H](CCc3cc(F)c(C(F)(F)F)c(F)c3)C(=O)N2C1 [Compound 1144] ([NMeGly(cBu)]I[Sar][Sar][NMeCha][Sar][hPhe(3,5-F2-4-CF3)][Hyp](Et)[Ac5c][NMeChg][NMeD]-Pyrrolidide; lactam N-11) | 0.49 | ≤ 20 |
| CCO[C@@H]1C[C@H]2C(=O)NC3(CCCC3)C(=O)N(C)[C@@H](C3CCCCC3)C(=O)N(C)[C@H](C(=O)N3CCCC3)CC(=O)N(C)[C@@H](CC(F)(F)F)C(=O)N[C@@H]([C@@H](C)CC)C(=O)N(C)CC(=O)N(C)CC(=O)N(C)[C@@H](Cc3ccc(C)cc3)C(=O)N(C)CC(=O)N[C@@H](CCc3cc(F)c(C(F)(F)F)c(F)c3)C(=O)N2C1 [Compound 1301] ([NMeAbu(4,4,4-F3)]I[Sar][Sar][NMePhe(4-Me)][Sar][hPhe(3,5-F2-4-CF3)][Hyp](Et)[Ac5c][NMeChg][NMeD]-Pyrrolidide; lactam N-11) | 0.67 | ≤ 20 |
| CCO[C@@H]1C[C@H]2C(=O)NC3(CCCC3)C(=O)N(C)[C@@H]([C@@H](C)CC)C(=O)N(C)[C@H](C)CC(=O)N(C)[C@@H](CC(C)C)C(=O)N[C@@H]([C@@H](C)CC)C(=O)N(C)[C@@H](C)C(=O)N3CC[C@H]3C(=O)N(CC)[C@@H](Cc3ccc(C)cc3)C(=O)N(C)CC(=O)N[C@@H](CCc3cc(F)c(C(F)(F)F)c(F)c3)C(=O)N2C1 [Compound 33] (cyclo([Ac5c][NMeI][NMedβ3hAla][NMeL]I[NMeA][Aze][NEtPhe(4-Me)][Sar][hPhe(3,5-F2-4-CF3)][Hyp](Et))) | 6.9 | ≤ 20 |
| CC[C@@H]1NC(=O)[C@H](CC(C)C)N(C)C(=O)C[C@@H](C(=O)N2CCCCC2)N(C)C(=O)[C@H](C(C)C)N(C)C(=O)C2(CCCC2)NC(=O)[C@@H]2CCCN2C(=O)[C@H](CCc2ccc(C(F)(F)F)c(Cl)c2)NC(=O)CN(C)C(=O)[C@H](CC2CCCCC2)N(C)C(=O)[C@@H]2CCN2C(=O)[C@H](C)N(C)C1=O [Compound 1760] ([NMeL][Abu][NMeA][Aze][NMeCha][Sar][hPhe(3-Cl-4-CF3)]P[Ac5c][NMeV][NMeD]-Piperidide; lactam N-11) | 32 | > 500 |
| CC[C@H](C)[C@@H]1NC(=O)[C@H](C)N(C)C(=O)C[C@@H](C)N(C)C(=O)[C@H](CC(C)C)NC(=O)C(C)(C)N(C)C(=O)[C@H](CC(C)C)NC(=O)[C@H](CCc2ccc(C(F)(F)F)c(Cl)c2)NC(=O)CN(C)C(=O)[C@H](CC2CCCCC2)N(C)C(=O)CN(C)C(=O)CN(C)C1=O [Compound 1380] (cyclo(I[Sar][Sar][NMeCha][Sar][hPhe(3-Cl-4-CF3)]L[NMeAib]L[NMedβ3hAla][NMeA])) | 16 | > 500 |
| CCCOC[C@H]1C(=O)N(C)CC(=O)N[C@@H](CCc2ccc(C(F)(F)F)c(Cl)c2)C(=O)N2CCC[C@H]2C(=O)NC2(CCCC2)C(=O)N(C)[C@@H]([C@@H](C)CC)C(=O)N(C)[C@H](C(=O)N2CCOCC2)CC(=O)N(C)[C@@H](CC(C)C)C(=O)N[C@@H]([C@@H](C)CC)C(=O)N(C)[C@@H](C)C(=O)N2CC[C@H]2C(=O)N1C [Compound 693] ([NMeL]I[NMeA][Aze][NMeS](Propyl)[Sar][hPhe(3-Cl-4-CF3)]P[Ac5c][NMeI][NMeD]-Morpholide; lactam N-11) | 1.6 | ≤ 20 |
| C#CC[C@H]1C(=O)N(C)CC(=O)N[C@@H](CCc2ccc(C(F)(F)F)c(Cl)c2)C(=O)N2CCC[C@H]2C(=O)NC2(CCCC2)C(=O)N(C)[C@@H](C(C)C)C(=O)N(C)[C@H](C(=O)N2CCCCC2)CC(=O)N(C)[C@@H](CC(C)C)C(=O)N[C@@H]([C@@H](C)CC)C(=O)N(C)[C@@H](C)C(=O)N2CC[C@H]2C(=O)N1C [Compound 32] ([NMeL]I[NMeA][Aze][NMePra][Sar][hPhe(3-Cl-4-CF3)]P[Ac5c][NMeV][NMeD]-Piperidide; lactam N-11) | 20 | > 500 |
| CC[C@H](C)[C@@H]1NC(=O)[C@H](CC(C)C)N(C)C(=O)C[C@@H](C(=O)N2CCCCC2)N(C)C(=O)[C@H](C2CCCCC2)N(C)C(=O)C2(CCCC2)NC(=O)CN(C2CC3(COC3)C2)C(=O)[C@H](CCc2ccc(C(F)(F)F)c(Cl)c2)NC(=O)CN(C)C(=O)[C@H](CC2CCCCC2)N(C)C(=O)CN(C)C(=O)CN(C)C1=O [Compound 2030] ([NMeL]I[Sar][Sar][NMeCha][Sar][hPhe(3-Cl-4-CF3)][X28][Ac5c][NMeChg][NMeD]-Piperidide; lactam N-11) | 2.3 | > 500 |
| CC[C@H](C)[C@@H]1NC(=O)[C@H](C)N(C)C(=O)C[C@@H](C)NC(=O)[C@H](C2CCCC2)N(C)C(=O)C2(CCCC2)NC(=O)[C@@H]2CCCN2C(=O)[C@H](CCc2ccc(C(F)(F)F)c(Cl)c2)NC(=O)[C@@H](C)N(C)C(=O)[C@H](Cc2ccc(C)cc2)N(C)C(=O)[C@@H]2CCN2C(=O)[C@H](C)N(C)C1=O [Compound 1536] (cyclo([Ac5c][NMeGly(cPent)][d(β3hA)][NMeA]I[NMeA][Aze][NMePhe(4-Me)][dNMeA][hPhe(3-Cl-4-CF3)]P)) | 21 | > 500 |
| CC[C@H](C)[C@@H]1NC(=O)[C@H](CC(C)C)N(C)C(=O)C[C@@H](C(=O)N(C)C)N(C)C(=O)[C@H](C2CCCC2)N(C)C(=O)C2(CCCC2)NC(=O)[C@@H]2CCCN2C(=O)[C@H](CCc2ccc(C(F)(F)F)c(F)c2)NC(=O)CN(C)C(=O)[C@H](Cc2ccc(C)cc2)N(C)C(=O)[C@@H]2CCN2C(=O)[C@H](C)N(C)C1=O [Compound 16] ([NMeL]I[NMeA][Aze][NMePhe(4-Me)][Sar][hPhe(3-F,4-CF3)]P[Ac5c][NMeGly(cPent)][NMeD]-NMe2; lactam N-11) | 0.7 | ≤ 20 |
| CC[C@H](C)[C@@H]1NC(=O)[C@H](CC(C)C)N(C)C(=O)C[C@@H](C(=O)N(C)C)N(C)C(=O)[C@H]([C@@H](C)CC)N(C)C(=O)C2(CCCC2)NC(=O)[C@@H]2CCCN2C(=O)[C@H](CCc2ccc(C(F)(F)F)c(F)c2)NC(=O)CN(C)C(=O)[C@H](C2CCCC2)N(C)C(=O)[C@@H]2CCN2C(=O)[C@H](C)N(C)C1=O [Compound 555] ([NMeL]I[NMeA][Aze][NMeGly(cPent)][Sar][hPhe(3-F,4-CF3)]P[Ac5c][NMeI][NMeD]-NMe2; lactam N-11) | 2.6 | ≤ 20 |
